Results from ChEMBL document CHEMBL5230129, “Antibacterial activities with the structure-activity relationship of coumarin derivatives” (2020).
In brackets after ≈: the same amount, converted by molar mass.

Legend:
Assay type in all cases: functional
Bacillus subtilis [1] = experiment: Antibacterial activity against Bacillus subtilis assessed as inhibition of bacterial growth by broth dilution assay
Pseudomonas aeruginosa [2] = experiment: Antibacterial activity against Pseudomonas aeruginosa assessed as inhibition of bacterial growth incubated for 24 hrs by broth microdilution assay
Pseudomonas = experiment: Antibacterial activity against Pseudomonas assessed as zone of inhibition
Staphylococcus aureus [3] = experiment: Antibacterial activity against Staphylococcus aureus MTCC 3160 assessed as inhibition of bacterial growth by broth micro dilution assay
Pseudomonas aeruginosa [4] = experiment: Antibacterial activity against Pseudomonas aeruginosa MTCC 1034 assessed as inhibition of bacterial growth by broth micro dilution assay
Bacillus subtilis [5] = experiment: Antibacterial activity against Bacillus subtilis assessed as inhibition of bacterial growth relative to control
Staphylococcus aureus [6] = experiment: Antibacterial activity against Staphylococcus aureus assessed as inhibition of bacterial growth by broth micro dilution assay
Escherichia coli [7] = experiment: Antibacterial activity against Escherichia coli MTCC 443 assessed as inhibition of bacterial growth incubated for 18 to 20 hrs by broth microdilution assay; conditions: time 18-20 hrs
Staphylococcus aureus [8] = experiment: Antibacterial activity against Staphylococcus aureus assessed as inhibition of bacterial growth by broth dilution assay
Staphylococcus aureus [9] = experiment: Antibacterial activity against Staphylococcus aureus MTCC 96 assessed as inhibition of bacterial growth incubated for 18 to 20 hrs by broth microdilution assay; conditions: time 18-20 hrs
Escherichia coli [10] = experiment: Antibacterial activity against Escherichia coli assessed as inhibition of bacterial growth relative to control
Staphylococcus aureus [11] = experiment: Antibacterial activity against Staphylococcus aureus ATCC-29213 assessed as inhibition of bacterial growth incubated for 16 hrs by agar-well diffusion assay
Bacillus = experiment: Antibacterial activity against Bacillus assessed as inhibition of bacterial growth by broth micro dilution assay
[12] = system: Staphylococcus epidermidis; experiment: Antibacterial activity against Staphylococcus epidermidis ATCC 12228 assessed as inhibition of bacterial growth incubated for 20 hrs by broth doubling dilution assay
Bacillus cereus [13] = experiment: Antibacterial activity against Bacillus cereus ATCC 10702 assessed as inhibition of bacterial growth incubated for 20 hrs by broth doubling dilution assay
Micrococcus luteus [14] = experiment: Antibacterial activity against Micrococcus luteus ATCC 9341 assessed as inhibition of bacterial growth incubated for 20 hrs by broth doubling dilution assay
[15] = system: Sphingomonas paucimobilis; experiment: Antibacterial activity against Flavobacterium devorans ATCC 10829 assessed as inhibition of bacterial growth incubated for 24 hrs by serial twofold dilution assay
Escherichia coli [16] = experiment: Antibacterial activity against Escherichia coli MTCC 739 assessed as inhibition of bacterial growth incubated for 24 hrs by spectrophotometric assay
Escherichia coli [17] = experiment: Antibacterial activity against Escherichia coli NCIM 2256 assessed as inhibition of bacterial growth incubated for 24 hrs by serial twofold dilution assay
Pseudomonas fluorescens = experiment: Antibacterial activity against Pseudomonas fluorescens NCIM 2173 assessed as inhibition of bacterial growth incubated for 24 hrs by serial twofold dilution assay
Staphylococcus aureus [18] = experiment: Antibacterial activity against Staphylococcus aureus NCTC-7447 assessed as zone of inhibition incubated for 24 hrs by paper disk diffusion assay
Staphylococcus aureus [19] = experiment: Antibacterial activity against Staphylococcus aureus assessed as zone of inhibition incubated for 24 hrs by well-diffusion method
Micrococcus luteus [20] = experiment: Antibacterial activity against Micrococcus luteus assessed as zone of inhibition incubated for 24 hrs by well-diffusion method
Escherichia coli [21] = experiment: Antibacterial activity against Escherichia coli assessed as zone of inhibition incubated for 24 hrs by well-diffusion method
Pseudomonas aeruginosa [22] = experiment: Antibacterial activity against Pseudomonas aeruginosa assessed as zone of inhibition incubated for 24 hrs by well-diffusion method
Escherichia coli [23] = experiment: Antibacterial activity against Escherichia coli assessed as inhibition of bacterial growth
Escherichia coli [24] = experiment: Antibacterial activity against Escherichia coli MTCC 40 assessed as zone of inhibition incubated for 24 hrs by well-plate method
Escherichia coli [25] = experiment: Antibacterial activity against Escherichia coli MTCC 40 assessed as inhibition of bacterial growth incubated for 24 hrs by well-plate method
Staphylococcus aureus [26] = experiment: Antibacterial activity against Staphylococcus aureus MTCC 121 assessed as zone of inhibition incubated for 24 hrs by well-plate method
Staphylococcus aureus [27] = experiment: Antibacterial activity against Staphylococcus aureus MTCC 121 assessed as inhibition of bacterial growth incubated for 24 hrs by well-plate method
Escherichia coli [28] = experiment: Antibacterial activity against Escherichia coli MTCC 1586 assessed as zone of inhibition incubated overnight by Kirby-Bauer disc diffusion method
Staphylococcus aureus [29] = experiment: Antibacterial activity against Staphylococcus aureus MTCC 740 assessed as zone of inhibition incubated overnight by Kirby-Bauer disc diffusion method
Bacillus cereus [30] = experiment: Antibacterial activity against Bacillus cereus MTCC 430 assessed as zone of inhibition incubated overnight by Kirby-Bauer disc diffusion method
Bacillus cereus [31] = experiment: Antibacterial activity against Bacillus cereus ATCC-14579 assessed as zone of inhibition incubated for 24 hrs by paper disk diffusion assay
Helicobacter pylori = experiment: Antibacterial activity against Helicobacter pylori ATCC43504 assessed as inhibition of bacterial growth incubated for 72 hrs by micro-dilution broth assay

## O=C(O)c1cn(C2CC2)c2cc(N3CCNCC3)c(F)cc2c1=O [CIPROFLOXACIN]
Bacillus subtilis [1]
  MIC: 2 µg/mL (≈ 6.04 µM)
Pseudomonas aeruginosa [2]
  MIC: 49 µg/mL (≈ 148 µM)
Pseudomonas
  inhibition zone (IZ): 7.5 mm
Staphylococcus aureus [3]
  MIC: 1.6 µg/mL (≈ 4.83 µM)
Pseudomonas aeruginosa [4]
  MIC: 1.6 µg/mL (≈ 4.83 µM)
Bacillus subtilis [5]
  inhibition (INH): 100%
Staphylococcus aureus [6]
  MIC: 2 µg/mL (≈ 6.04 µM)
Escherichia coli [7]
  MIC: 25 µg/mL (≈ 75.4 µM)
Staphylococcus aureus [8]
  MIC: 2 µg/mL (≈ 6.04 µM)
Staphylococcus aureus [9]
  MIC: 50 µg/mL (≈ 151 µM)
Escherichia coli [10]
  inhibition (INH): 100%
Staphylococcus aureus [11]
  MIC: 10 µg/mL (≈ 30.2 µM)
Bacillus
  MIC: 2 µg/mL (≈ 6.04 µM)

## Cc1c(O)c(C(=O)CCc2ccccc2)c2oc(=O)cc(-c3ccccc3)c2c1O
[12]
  MIC: 1 µg/mL (≈ 2.5 µM)
Bacillus cereus [13]
  MIC: 2 µg/mL (≈ 4.99 µM)
Micrococcus luteus [14]
  MIC: 2 µg/mL (≈ 4.99 µM)

## Cc1cc(=O)oc2c1=CCC(Cl)C=2C1C(C#N)=C(N)Oc2c1c(=O)oc1ccccc21 (configuration not stated)
Staphylococcus aureus [3]
  MIC: 0.8 µg/mL (≈ 1.84 µM)

## CC1(C)S[C@@H]2[C@H](NC(=O)[C@H](N)c3ccccc3)C(=O)N2[C@H]1C(=O)O [AMPICILLIN]
[15]
  MIC: 4 µg/mL (≈ 11.4 µM)
Escherichia coli [16]
  MIC: 6.25 µg/mL (≈ 17.9 µM)
Escherichia coli [17]
  MIC: 4 µg/mL (≈ 11.4 µM)
Pseudomonas fluorescens
  MIC: 4 µg/mL (≈ 11.4 µM)

## O=c1oc2ccccc2c(O)c1-c1cc[nH]n1
Staphylococcus aureus [18]
  inhibition zone (IZ): 10 mm

## O=c1oc2ccccc2c(O)c1C(c1c(Cl)cccc1Cl)c1c(O)c2ccccc2oc1=O
Staphylococcus aureus [19]
  inhibition zone (IZ): 10 mm
Micrococcus luteus [20]
  inhibition zone (IZ): 10 mm
Escherichia coli [21]
  inhibition zone (IZ): 10 mm
Pseudomonas aeruginosa [22]
  inhibition zone (IZ): 10 mm

## C[C@H]1COc2c(N3CCN(C)CC3)c(F)cc3c(=O)c(C(=O)O)cn1c23.C[C@H]1COc2c(N3CCN(C)CC3)c(F)cc3c(=O)c(C(=O)O)cn1c23.O [LEVOFLOXACIN]
Pseudomonas aeruginosa [2]
  MIC: 3.12 µg/mL

## COc1ccc(C(=O)C(c2c(O)c3ccccc3oc2=O)N2CCCCC2)cc1 (configuration not stated)
Escherichia coli [23]
  MIC: 6.25 µg/mL (≈ 15.9 µM)

## Cc1cc(=O)oc2c1=CCC(O)C=2C1C(C#N)=C(N)Oc2c1c(=O)oc1ccccc21 (configuration not stated)
Staphylococcus aureus [3]
  MIC: 0.4 µg/mL (≈ 0.961 µM)
Pseudomonas aeruginosa [4]
  MIC: 1.6 µg/mL (≈ 3.84 µM)

## O=c1oc2cc(Br)ccc2cc1-c1csc(N/N=C/c2cn(-c3ccccc3)nc2-c2cc3ccccc3oc2=O)n1
Escherichia coli [24]
  inhibition zone (IZ): 22 mm
Escherichia coli [25]
  MIC: 12.5 µg/mL (≈ 19.6 µM)
Staphylococcus aureus [26]
  inhibition zone (IZ): 22 mm
Staphylococcus aureus [27]
  MIC: 50 µg/mL (≈ 78.6 µM)

## CC[N+](CC)(CC)CCCCCCNCc1cn(Cc2cc(=O)oc3cc4c(cc23)CCC(C)(C)O4)nn1.[Br-]
Escherichia coli [28]
  inhibition zone (IZ): 10 mm
Staphylococcus aureus [29]
  inhibition zone (IZ): 12 mm

## CC[N+](CC)(CC)CCCCCCCCCCCCNCc1cn(Cc2cc(=O)oc3cc4c(cc23)CCC(C)(C)O4)nn1.[Br-]
Escherichia coli [28]
  inhibition zone (IZ): 8 mm
Bacillus cereus [30]
  inhibition zone (IZ): 24 mm
Staphylococcus aureus [29]
  inhibition zone (IZ): 6 mm

## O=c1oc2ccccc2c(O)c1-c1ccn(-c2ccccc2)n1
Staphylococcus aureus [18]
  inhibition zone (IZ): 20 mm
Bacillus cereus [31]
  inhibition zone (IZ): 16 mm

## COc1ccc2c(CC(=O)O)cc(=O)oc2c1
Helicobacter pylori
  MIC: 49 µg/mL (≈ 209 µM)
